Results taken from patent publication US6875748B2, “Compositions and methods for in vivo delivery of polynucleotide-based therapeutics” (Vical Incorporated, priority 2000, dated 2005).
Like-named read-outs stand apart in the source and are kept apart here.

Key:
mouse quadriceps muscle [1] = experiment: Luciferase expression in mouse quadriceps muscle after i.m. injection of plasmid VR1255 with auxiliary agents; details: for ability to enhance in vivo expression relative to identical composition without the compound: mouse; for luciferase expression versus 150 mM sodium phosphate alone: day 7
mouse quadriceps muscle [2] = experiment: Luciferase expression in mouse quadriceps muscle 7 days after i.m. injection of plasmid VR1223 in salt solutions; assay type: in vivo; parameters: lux: unit: ng/muscle; details: for ng Lux/Muscle: 50 μg VR1223 in 50 μl; for ng Lux/Muscle / Fold Saline: salts at 150 mM, day 7; for luciferase expression compared with saline (words): 150 mM solutions; for luciferase expression compared with saline (words) / luciferase expression, fold over saline: VR1223, day 7; for lux: 7-day luciferase expression, VR1223; for Fold Saline: relative to saline
pH of the salt solutions = assay type: physicochemical
[3] = Osmolarity of the salt solutions; assay type: physicochemical; details: for Osm: 150 mM unless otherwise indicated
[4] = 150 mM unless otherwise indicated

Row | Compound | ability to enhance in vivo expression relative to identical composition without the compound (mouse quadriceps muscle [1]) | ng Lux/Muscle (mouse quadriceps muscle [2]) | luciferase expression compared with saline (words) (mouse quadriceps muscle [2]) | lux (mouse quadriceps muscle [2]; Table III-A) | lux (mouse quadriceps muscle [2]; Table III-B) | Fold Saline (mouse quadriceps muscle [2]) | pH (pH of the salt solutions; [4]) | Osm [3] | other results
1 | C[C@H](CCC(=O)NCCC[N+](C)(C)CCCS(=O)(=O)[O-])[C@H]1CC[C@H]2[C@@H]3[C@H](O)C[C@@H]4C[C@H](O)CC[C@]4(C)[C@H]3C[C@H](O)[C@]12C [CHAPS, 3[(3-Cholamidopropyl)dimethylammonio]-1-propanesulfonate] | no ability to enhance | – | – | – | – | – | – | – | –
2 | [Ca+2].[Cl-].[Cl-] [Calcium Chloride] | – | 0.3 ng/Muscle | no ability to enhance | 0.3 | 0.3 | <0.1 Fold | 5.5 | 362 mmol/kg | –
3 | C[S+](C)[O-] [DMSO, dimethylsulfoxide] | – | – | – | – | – | – | – | – | luciferase expression versus 150 mM sodium phosphate alone (mouse quadriceps muscle [1]): significantly increased expression
4 | O=C(O)CN(CCN(CC(=O)O)CC(=O)O)CC(=O)O [EDTA, ethylenediamine tetraacetic acid] | – | – | – | – | – | – | – | – | luciferase expression versus 150 mM sodium phosphate alone (mouse quadriceps muscle [1]): significantly increased expression
5 | O=C(O)CN(CCOCCOCCN(CC(=O)O)CC(=O)O)CC(=O)O [EGTA] | no ability to enhance | – | – | – | – | – | – | – | –
6 | [Cl][Fe][Cl] [Ferrous Chloride] | – | 0.0 ng/Muscle | no ability to enhance | 0.0 | 0.0 | <0.1 Fold | 5.0 | 362 mmol/kg | –
7 | CCCCCCC(=O)N(C)C[C@H](O)[C@@H](O)[C@H](O)[C@H](O)CO [MEGA 7, heptanoyl-N-methyl-glucamide] | no ability to enhance | – | – | – | – | – | – | – | –
8 | CCCCCCCC(=O)N(C)C[C@H](O)[C@@H](O)[C@H](O)[C@H](O)CO [MEGA 8, octanyol-N-methyl-glucamide] | no ability to enhance | – | – | – | – | – | – | – | –
9 | CCCCCCCCC(=O)N(C)C[C@H](O)[C@@H](O)[C@H](O)[C@H](O)CO [MEGA 9, nonanoyl-N-methyl-glucamide] | no ability to enhance | – | – | – | – | – | – | – | –
10 | [Cl-].[Cl-].[Mg+2] [Magnesium Chloride] | – | 1 ng/Muscle | no ability to enhance | 1 | 1 | <0.1 Fold | 5.5 | 360 mmol/kg | –
11 | [Cl-].[K+] [Potassium Chloride] | – | 124 ng/Muscle | no ability to enhance | 124 | 124 | 1.0 Fold | 5.5 | 280 mmol/kg | –
12 | O=P(O)(O)O [Potassium Phosphate] | – | 449 ng/Muscle | stimulated expression just as well as solution of 150 mM sodium phosphate | 449 | 449 | 3.8 Fold | 7.5 | 323 mmol/kg | –
13 | CCCCCCCCCCCCOS(=O)(=O)[O-].[Na+] [SDS, sodium dodecyl sulfate] | – | – | – | – | – | – | – | – | luciferase expression versus 150 mM sodium phosphate alone (mouse quadriceps muscle [1]): significantly increased expression
14 | CC(=O)[O-].[Na+] [Sodium Acetate] | – | 498 ng/Muscle | increased luciferase expression compared with saline | 498 | 498 | 4.1 Fold | 6.5 | 271 mmol/kg | –
15 | O=C([O-])O.[Na+] [Sodium Bicarbonate] | – | 330 ng/Muscle | increased luciferase expression compared with saline | 330 | 330 | 2.8 Fold | 9.0 | 727 mmol/kg | luciferase expression, fold over saline (mouse quadriceps muscle [2]): 2.8 fold; pH (pH of the salt solutions): 9.0
16 | O=C([O-])CC(O)(CC(=O)[O-])C(=O)[O-].[Na+].[Na+].[Na+] [Sodium Citrate] | – | 90 ng/Muscle | – | 108 | 108 | <0.1 Fold | 7.5 | 394 mmol/kg | luciferase expression compared with saline (words) (mouse quadriceps muscle [2]; listed as 150 mM sodium citrate): no ability to enhance; luciferase expression compared with saline (words) (mouse quadriceps muscle [2]; listed as Sodium citrate): same luciferase expression as saline; luciferase expression compared with saline (words) (mouse quadriceps muscle [2]; listed as sodium citrate): the same as with saline; lux (mouse quadriceps muscle [2]; Table III-A, listed as 50 mM Sodium Citrate): 83; lux (mouse quadriceps muscle [2]; Table III-B, listed as 50 mM Sodium Citrate): 83; osmolarity [3]: 394 mmol/kg; Osm ([3]; listed as 50 mM Sodium Citrate): 164 mmol/kg
17 | O=C([O-])C(=O)[O-].[Na+].[Na+] [Sodium Oxalate] | – | 15 ng/Muscle | inhibited luciferase expression | 15 | 15 | <0.1 Fold | 6.5 | 346 mmol/kg | luciferase expression compared with saline (words) (mouse quadriceps muscle [2]; listed as 150 mM sodium oxalate): no ability to enhance
18 | O=P([O-])([O-])OP(=O)([O-])[O-].[Na+].[Na+].[Na+].[Na+] [Sodium Pyrophosphate] | – | – | – | 3 | 3 | – | 9.0 | 363 mmol/kg | –
19 | CC(=O)C(=O)[O-].[Na+] [Sodium Pyruvate] | – | 364 ng/Muscle | increased luciferase expression compared with saline | 364 | 364 | 3.1 Fold | 6.0 | 271 mmol/kg | –
20 | O=S(=O)([O-])[O-].[Na+].[Na+] [Sodium Sulfate] | – | 312 ng/Muscle | increased luciferase expression compared with saline | 312 | 312 | 2.6 Fold | 5.5 | 349 mmol/kg | luciferase expression, fold over saline (mouse quadriceps muscle [2]): 2.6 fold; pH (pH of the salt solutions): 5.5

Row | Compound | ability to enhance in vivo expression relative to identical composition without the compound (mouse quadriceps muscle [1]) | ng Lux/Muscle (mouse quadriceps muscle [2]) | luciferase expression compared with saline (words) (mouse quadriceps muscle [2]) | lux (mouse quadriceps muscle [2]; Table III-A) | lux (mouse quadriceps muscle [2]; Table III-B) | Fold Saline (mouse quadriceps muscle [2]) | pH (pH of the salt solutions; [4]) | Osm [3] | other results
21 | O=P([O-])([O-])O.[Na+].[Na+] [Sodium dibasic, Na2HPO4] | – | 282 ng/Muscle | only slightly stimulated over saline | 282 | 282 | 2.4 Fold | 8.0 | 357 mmol/kg | –
22 | O=P([O-])(O)O.[Na+] [Sodium monobasic, NaH2PO4] | – | 198 ng/Muscle | only slightly stimulated over saline | 198 | 198 | 1.7 Fold | 5.5 | 277 mmol/kg | –
23 | OC[C@H]1O[C@H](OC[C@H]2O[C@H](OC[C@H]3O[C@H](O[C@]4(CO)O[C@H](CO)[C@@H](O)[C@@H]4O)[C@H](O)[C@@H](O)[C@@H]3O)[C@H](O)[C@@H](O)[C@H]2O)[C@H](O)[C@@H](O)[C@H]1O [Stachyose, stachyose] | – | – | – | – | – | – | – | – | luciferase expression versus 150 mM sodium phosphate alone (mouse quadriceps muscle [1]): significantly increased expression
24 | CCCCCCCCCCCCCCCC[N+](C)(C)CCCS(=O)(=O)[O-] [Zwittergent, n-hexadecyl-N,N-dimethyl-3-ammonio-1-propanesulfonate] | no ability to enhance | – | – | – | – | – | – | – | –
25 | OCc1ccccc1 [benzyl alcohol] | no ability to enhance | – | – | – | – | – | – | – | –
26 | CCCCCCCCCCCCO[C@@H]1O[C@H](CO)[C@@H](O[C@H]2O[C@H](CO)[C@@H](O)[C@H](O)[C@H]2O)[C@H](O)[C@H]1O [n-Dodecylmaltoside, n-dodecylmaltoside] | no ability to enhance | – | – | – | – | – | – | – | –
27 | CCCCCCCCO[C@@H]1O[C@H](CO)[C@@H](O)[C@H](O)[C@H]1O [n-octylglucoside] | no ability to enhance | – | – | – | – | – | – | – | –
28 | (octyl phenoxy) polyethoxyethanol [IGEPAL CA 630®] | – | – | – | – | – | – | – | – | luciferase expression versus 150 mM sodium phosphate alone (mouse quadriceps muscle [1]): significantly increased expression
29 | Actin | no ability to enhance | – | – | – | – | – | – | – | –
30 | Macrogol-50 stearate [MYRJ 53] | no ability to enhance | – | – | – | – | – | – | – | –
31 | PEG-40 Stearate [MYRJ 52] | no ability to enhance | – | – | – | – | – | – | – | –
32 | octyl phenol ethylene oxide condensate with about 7-8 ethylene oxide units [Triton X-114] | – | – | – | – | – | – | – | – | luciferase expression versus 150 mM sodium phosphate alone (mouse quadriceps muscle [1]): significantly increased expression
33 | octyl phenol ethylene oxide condensate with about 9 ethylene oxide units [Nonidet P40] | – | – | – | – | – | – | – | – | luciferase expression versus 150 mM sodium phosphate alone (mouse quadriceps muscle [1]): significantly increased expression
34 | polyoxyethylene 10 cetyl ether | no ability to enhance | – | – | – | – | – | – | – | –
35 | polyoxyethylene 20 stearyl ether | no ability to enhance | – | – | – | – | – | – | – | –
36 | polyoxyethylene sorbitan monolaurate [Tween 20] | – | – | – | – | – | – | – | – | luciferase expression versus 150 mM sodium phosphate alone (mouse quadriceps muscle [1]): significantly increased expression
37 | polyoxyethylene sorbitan monooleate [Tween 80] | – | – | – | – | – | – | – | – | luciferase expression versus 150 mM sodium phosphate alone (mouse quadriceps muscle [1]): significantly increased expression
38 | polysorbate 40 [Tween-40®] | no ability to enhance | – | – | – | – | – | – | – | –
39 | sorbitan monolaurate [SPAN 20] | no ability to enhance | – | – | – | – | – | – | – | –
